Source: patent US20210348119A1, “COMPOSITIONS AND METHODS FOR CELL CULTURE” (The United States of America as Represented By The …, priority 2018, published 2021)
Values joined by “and” are separate entries in the source; they are usually repeats but may differ in a detail not shown here. Equal values may be shown once. Read-outs that look alike come from different tables or passages of the source.

Tested on: H9 cells
Assay: qHTS for survival of dissociated H9 cells (CellTiter-Glo, 24 hours after seeding)
Assay type: cell-based, human
Conditions: for AC50: CellTiter-Glo 24 hours after seeding, read-out: AC50 (concentration at 50% efficacy)
Text: FIG. 2 schematically illustrates qHTS procedure.
All the screed compounds were received pre-plated at the pre-determined concentrations. […] Curve classification is explained in Huang et al. “Chemical genomics profiling of environmental chemical modulation of human nuclear receptors” Environ. Health. Perspect.

[1] = H9 cell survival normalized to 10 μM Y-27632 (taken to be 100%)
[2] = H9 cell survival, normalized to 10 μM Y-27632
[3] = Homo sapiens, H9, 24 h, H9 cell survival normalized to 10 μM Y-27632 (taken to be 100%), read-out: Max (maximum activity value from all tested concentrations)
[4] = Homo sapiens, H9, 24 h, H9 cell survival
[5] = Homo sapiens, H9, 24 h, H9 cell survival, normalized to 10 μM Y-27632, read-out: Efficacy (activity range between predicted activities at zero and infinite doses, Hill equation)

## CC(C)CCC(=O)CC1c2ccccc2C(=O)N1c1ccc2ccc(Cl)nc2n1 (single isomer, unassigned; (+)) [(+)-Pagoclone]
[1]
  Max (maximum activity value from all tested concentrations): 22.94%
[2]
  Efficacy (activity range between predicted activities at zero and infinite doses, Hill equation): 0

## Oc1cccc2c(O)nccc12 [1,5-Isoquinolinediol]
[3]
  Emax: 41%
[4]
  AC50: 18.4 µM
[5]
  Emax: 42.2%

## CC1CN(S(=O)(=O)c2cccc3cnccc23)CCN1.Cl.Cl (stereo not drawn) [1-05-IsoquinolinylstilfonyI)-3-methylpiperazine dihydroehloride]
[1]
  Max (maximum activity value from all tested concentrations): 100.6%
H9 cell survival
  AC50: 20.6 µM
[2]
  Efficacy (activity range between predicted activities at zero and infinite doses, Hill equation): 102

## COc1cccc(CNC(=O)Nc2nc(-c3ccncc3)cs2)c1 [1-(3-methoxybenzyl)-3-(4-(pyridin-4-yl)thiazol-2-yl)urea]
[3]
  Emax: 124%
[4]
  AC50: 0.147 µM
[5]
  Emax: 121%

## CC1CNCCN1S(=O)(=O)c1cccc2cnccc12.Cl.Cl (stereo not drawn) [1-(5-Isoquinolinylsulfonyl)-2-methylpipenvine dihydrochloride]
[1]
  Max (maximum activity value from all tested concentrations): 85.52%
H9 cell survival
  AC50: 4.61 µM
[2]
  Efficacy (activity range between predicted activities at zero and infinite doses, Hill equation): 92.2

## C[C@]12C[C@@H](O)[C@H]3[C@@H](CC[C@@H]4C[C@@H](O)CC[C@@]43CO)[C@@]1(O)CC[C@@H]2C1=CC(=O)OC1 [19-hydroxysarmentogenin]
[1]
  Max (maximum activity value from all tested concentrations): 21.79%
H9 cell survival
  AC50: 0.004 µM
[2]
  Efficacy (activity range between predicted activities at zero and infinite doses, Hill equation): −11.5

## Cc1n[nH]c2ccc(-c3cncc(OC[C@@H](N)Cc4c[nH]c5ccccc45)c3)cc12 [A-443654]
[3]
  Emax: 39.8%
[5]
  Emax: 0%

## Cc1cccc(NC(=O)c2ccc(C(F)(F)F)cc2C(=O)O)n1 [AF38469]
[1]
  Max (maximum activity value from all tested concentrations): 22.96%
H9 cell survival
  AC50: 5.21 µM
[2]
  Efficacy (activity range between predicted activities at zero and infinite doses, Hill equation): 29.6

## CCn1c(-c2nonc2N)nc2c(C#CCO)ncc(OCCCN)c21 [AKT Kinase Inhibitor]
[1]
  Max (maximum activity value from all tested concentrations): 46.89%
[2]
  Efficacy (activity range between predicted activities at zero and infinite doses, Hill equation): 0

## O=C1NC(=O)C(=O)C(=O)N1 [ALLOXAN]
Homo sapiens, H9, 24 h, read-out: Efficacy (activity range between predicted activities at zero and infinite doses, Hill equation)
  Emax: 27.2%
Homo sapiens, H9, 24 h, read-out: Max (maximum activity value from all tested concentrations)
  Emax: 22.4%
Homo sapiens, H9 cell survival
  AC50: 5.21 µM

## CNc1nccc(-c2cccnc2Oc2cc(C(=O)Nc3cccc(C(F)(F)F)c3)ccc2C)n1 [AMG-Tie2-1]
[1]
  Max (maximum activity value from all tested concentrations): 57.84%
H9 cell survival
  AC50: 18.7 µM
[2]
  Efficacy (activity range between predicted activities at zero and infinite doses, Hill equation): 54.5

## O=C(Nc1ccc(-c2ccncc2)cc1)N[C@H](CO)c1ccccc1 [AS 1892802]
[1]
  Max (maximum activity value from all tested concentrations): 117.5%
H9 cell survival
  AC50: 1.31 µM
[2]
  Efficacy (activity range between predicted activities at zero and infinite doses, Hill equation): 115

## Clc1ccc(C2(c3ccc(-c4cn[nH]c4)cc3)CCNCC2)cc1 [AT-7867]
[1]
  Max (maximum activity value from all tested concentrations): 119.5% and 118.4%
[2]
  Efficacy (activity range between predicted activities at zero and infinite doses, Hill equation): 92.2 and 104

## NC[C@@](O)(c1ccc(Cl)cc1)c1ccc(-c2cn[nH]c2)cc1 [AT-13148]
[3]
  Emax: 89.8%
[4]
  AC50: 0.104 µM
[5]
  Emax: 64.5%

## CCCCOc1c(C(=O)c2c(F)cc(C)cc2F)c[nH]c2nncc1-2 [BMS-265246]
[3]
  Emax: 42.8%
[4]
  AC50: 1.18 µM
[5]
  Emax: 33.9%

## Cl.O=c1[nH]c([C@@H]2CCCN2)nc2c1oc1ccc(Cl)cc12 [BMS-863233 (XL-413)]
[1]
  Max (maximum activity value from all tested concentrations): 22.03%
H9 cell survival
  AC50: 26.1 µM
[2]
  Efficacy (activity range between predicted activities at zero and infinite doses, Hill equation): 28.3

## CCS(=O)(=O)N1CC(CC#N)(n2cc(-c3ncnc4[nH]ccc34)cn2)C1 [Baricitinib]
[3]
  Emax: 115%

## CCCC1(C)C(C#N)(C#N)C1(C#N)C#N [CCG-2046]
[1]
  Max (maximum activity value from all tested concentrations): 21.78%
H9 cell survival
  AC50: 20.6 µM
[2]
  Efficacy (activity range between predicted activities at zero and infinite doses, Hill equation): 23.7

## NC1(Cc2ccc(Cl)cc2)CCN(c2ncnc3[nH]ccc23)CC1 [CCT-128930]
[1]
  Max (maximum activity value from all tested concentrations): 106.8%
H9 cell survival
  AC50: 11.8 µM
[2]
  Efficacy (activity range between predicted activities at zero and infinite doses, Hill equation): 133
